Data published in patent publication US10155768B2, “Fused pyrimidine compound or salt thereof” (TAIHO PHARMACEUTICAL CO., LTD., priority 2016, dated 2018).

Assay: Evaluation of stability in liver microsome
Details: mouse liver microsome 0.25 mg/mL, 1 μM test compound, 37° C. for 30 minutes

Remaining (%) | SMILES
79% | C=Cc1c(C(=O)Nc2ccc(COC)cc2)c2c(N)ncnc2n1C1(C)CC1 [Example 65, 4-amino-N-(4-(methoxymethyl)phenyl)-7-(1-methylcyclopropyl)-6-vinyl-7H-pyrrolo[2,3-d]pyrimidine-5-carboxamide]
69% | COCc1ccc(NC(=O)c2c(F)n(C3(C)CC3)c3ncnc(N)c23)cc1 [Example 69, 4-amino-6-fluoro-N-(4-(methoxymethyl)phenyl)-7-(1-methylcyclopropyl)-7H-pyrrolo[2,3-d]pyrimidine-5-carboxamide]
64% | COCc1ccc(NC(=O)c2cn(C(C)(C)C)c3ncnc(N)c23)cc1 [Example 2, 4-amino-7-(tert-butyl)-N-(4-(methoxymethyl)phenyl)-7H-pyrrolo[2,3-d]pyrimidine-5-carboxamide]
52% | COCc1ccc(NC(=O)c2c(C#CC(O)C3CC3)n(C3(C)CC3)c3ncnc(N)c23)cc1 (stereo not drawn) [Example 104, 4-amino-6-(3-cyclopropyl-3-hydroxyprop-1-yn-1-yl)-N-(4-(methoxymethyl)phenyl)-7-(1-methylcyclopropyl)-7H-pyrrolo[2,3-d]pyrimidine-5-carboxamide]
58% | COCc1ccc(NC(=O)c2c(-c3ccc(F)nc3)n(C3(C)CC3)c3ncnc(N)c23)cc1 [Example 190, 4-amino-6-(6-fluoropyridin-3-yl)-N-(4-(methoxymethyl)phenyl)-7-(1-methylcyclopropyl)-7H-pyrrolo[2,3-d]pyrimidine-5-carboxamide]
56% | COCc1ccc(NC(=O)c2c(Br)n(C3(C)CC3)c3ncnc(N)c23)cc1 [Example 55, 4-amino-6-bromo-N-[4-(methoxymethyl)phenyl]-7-(1-methylcyclopropyl)-7H-pyrrolo[2,3-d]pyrimidine-5-carboxamide]
77% | COCc1ccc(NC(=O)c2c(C#CCN3CCN(C)CC3)n(C3(C)CC3)c3ncnc(N)c23)cc1 [Example 132, 4-amino-N-(4-(methoxymethyl)phenyl)-7-(1methylcyclopropyl)-6-(3-(4-methylpiperazin-1-yl)prop-1-yn-1-yl)-7H-pyrrolo[2,3-d]pyrimidine-5-carboxamide]
72% | COCc1ccc(NC(=O)c2c(C#CC3(O)CCOC3)n(C3(C)CC3)c3ncnc(N)c23)cc1 (stereo not drawn) [Example 177, 4-amino-6-((3-hydroxytetrahydrofuran-3-yl)ethynyl)-N-(4-(methoxymethyl)phenyl)-7-(1-methylcyclopropyl)-7H-pyrrolo[2,3-d]pyrimidine-5-carboxamide]
67% | COCc1ccc(NC(=O)c2c(C#Cc3cnn(C)c3)n(C3(C)CC3)c3ncnc(N)c23)cc1 [Example 90, 4-amino-N-[4-(methoxymethyl)phenyl]-6-((1-methyl-1H-pyrazol-4-yl)ethynyl)-7-(1-methylcyclopropyl)-7H-pyrrolo[2,3-d]pyrimidine-5-carboxamide]
69% | COCc1ccc(NC(=O)c2c(OC[C@H]3CCCO3)n(C3(C)CC3)c3ncnc(N)c23)cc1 [Example 89, (R)-4-amino-N-[4-(methoxymethyl)phenyl]-7-(1-methylcyclopropyl)-6-((tetrahydrofuran-2-yl)methoxy)-7H-pyrrolo[2,3-d]pyrimidine-5-carboxamide]
73% | CCn1cc(C#Cc2c(C(=O)Nc3ccc(COC)cc3)c3c(N)ncnc3n2C2(C)CC2)cn1 [Example 118, 4-amino-6-((1-ethyl-1H-pyrazol-4-yl)ethynyl)-N-(4-(methoxymethyl)phenyl)-7-(1-methylcyclopropyl)-7H-pyrrolo[2,3-d]pyrimidine-5-carboxamide]
72% | COCc1ccc(NC(=O)c2c(C#Cc3ccc(Cl)nc3)n(C3(C)CC3)c3ncnc(N)c23)cc1 [Example 120, 4-amino-6-((6-chloropyridin-3-yl)ethynyl)-N-(4-(methoxymethyl)phenyl)-7-(1-methylcyclopropyl)-7H-pyrrolo[2,3-d]pyrimidine-5-carboxamide]
